Assay results: ChEMBL document CHEMBL1201862, “PubChem BioAssay data set” (2004)
The source made the active and inactive calls.

What was measured:
[1] = inhibitors of clade B AD8 Env fusion, dose response, cell-based, cherry-pick (AID 652062); assay type: functional;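 also: luciferase signal from cell-cell fusion driven by HIV-1 clade B AD8 Env; potency is for inhibitors of fusion seen as a drop in luminescence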
[2] = off-target signal loss in HeLa-CEM21 co-culture – HeLa F-luc CTL cells, cherry-picked, counter-screen for HIV-1 Env fusion inhibitor project, dose response (AID 652040); assay type: functional, cell-based;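 also: potency for signal decrease marking cytotoxic or nonspecific inhibition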
[3] = target: SWI/SNF-related matrix-associated actin-dependent regulator of chromatin subfamily A member 2 (Homo sapiens, UniProt P51531); experiment: Luminescence-based cell-based high throughput dose response assay to identify activators of the function of SWI/SNF related, matrix associated, actin dependent regulator of chromatin, subfamily a, member 2 (SMARCA2, BRM).; assay type: functional
Sequence of SWI/SNF-related matrix-associated actin-dependent regulator of chromatin subfamily A member 2 (P51531 whole entry): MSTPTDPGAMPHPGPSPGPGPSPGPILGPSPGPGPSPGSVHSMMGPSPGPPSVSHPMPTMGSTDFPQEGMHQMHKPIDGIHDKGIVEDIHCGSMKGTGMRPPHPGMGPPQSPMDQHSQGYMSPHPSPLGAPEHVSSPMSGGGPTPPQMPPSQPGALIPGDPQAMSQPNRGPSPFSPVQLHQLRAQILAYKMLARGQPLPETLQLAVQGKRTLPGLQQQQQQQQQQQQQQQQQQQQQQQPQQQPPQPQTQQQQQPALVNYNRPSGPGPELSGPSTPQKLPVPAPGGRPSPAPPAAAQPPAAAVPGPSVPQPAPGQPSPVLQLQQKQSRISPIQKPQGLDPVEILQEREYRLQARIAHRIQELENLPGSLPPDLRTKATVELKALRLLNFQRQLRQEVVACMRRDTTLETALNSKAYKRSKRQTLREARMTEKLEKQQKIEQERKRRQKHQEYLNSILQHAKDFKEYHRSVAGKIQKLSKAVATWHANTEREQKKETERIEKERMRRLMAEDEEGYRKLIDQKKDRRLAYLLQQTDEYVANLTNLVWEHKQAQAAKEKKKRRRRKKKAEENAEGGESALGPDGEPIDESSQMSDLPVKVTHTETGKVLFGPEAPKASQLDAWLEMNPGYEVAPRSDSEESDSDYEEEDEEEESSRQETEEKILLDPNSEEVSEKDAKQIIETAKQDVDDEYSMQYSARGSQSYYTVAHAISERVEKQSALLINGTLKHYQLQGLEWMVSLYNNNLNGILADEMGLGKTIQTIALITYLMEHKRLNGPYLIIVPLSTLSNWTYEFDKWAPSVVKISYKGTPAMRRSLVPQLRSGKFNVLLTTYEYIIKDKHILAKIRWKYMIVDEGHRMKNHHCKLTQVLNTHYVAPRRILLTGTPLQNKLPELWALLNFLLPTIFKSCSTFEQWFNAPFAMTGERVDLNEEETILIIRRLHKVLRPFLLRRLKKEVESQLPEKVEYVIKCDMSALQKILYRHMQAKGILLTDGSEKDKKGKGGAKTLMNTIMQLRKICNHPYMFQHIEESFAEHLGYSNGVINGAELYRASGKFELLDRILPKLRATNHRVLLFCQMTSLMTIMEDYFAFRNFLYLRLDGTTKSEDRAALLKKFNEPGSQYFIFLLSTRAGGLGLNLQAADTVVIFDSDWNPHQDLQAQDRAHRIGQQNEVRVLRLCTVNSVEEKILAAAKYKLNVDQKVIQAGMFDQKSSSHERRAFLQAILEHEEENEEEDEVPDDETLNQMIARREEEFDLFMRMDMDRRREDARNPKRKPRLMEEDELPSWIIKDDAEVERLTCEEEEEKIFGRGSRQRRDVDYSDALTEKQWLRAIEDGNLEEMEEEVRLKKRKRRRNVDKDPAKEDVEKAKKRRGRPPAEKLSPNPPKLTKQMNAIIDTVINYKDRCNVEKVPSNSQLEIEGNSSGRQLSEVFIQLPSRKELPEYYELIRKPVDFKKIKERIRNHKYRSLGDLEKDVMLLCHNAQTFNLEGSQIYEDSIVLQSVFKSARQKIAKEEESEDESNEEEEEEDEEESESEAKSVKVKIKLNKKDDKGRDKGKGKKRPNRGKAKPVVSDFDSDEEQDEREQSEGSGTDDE

SN12K1 = experiment: cells; assay type: functional; conditions: Homo sapiens
[4] = CEM21 lymphoblast cell cytotoxicity, dose response, cytotoxicity control for viral fusion inhibitor project, CellTiter-Glo luminescence, cherry-picked (AID 652042); assay type: functional, cell-based;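 also: potency for signal decrease meaning cytotoxicity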
[5] = Counterscreen for activators of the function of SWI/SNF related, matrix associated, actin dependent regulator of chromatin, subfamily a, member 2 (SMARCA2, BRM): Luminescence-based cell-based high throughput dose response assay to identify non-selective compounds using the VP16 reporter assay.; assay type: functional
[6] = inhibitors of HIV Env-driven cell fusion, dose response, cherry-pick (AID 652057); assay type: functional, cell-based
[7] = target: Cyclin-dependent kinase 5/CDK5 activator 1 (Homo sapiens, UniProt Q00535); experiment: CDK5/p35 kinase inhibitors, dose response, biochemical, cherry-picked samples, set 2 (AID 504545)
Sequence of Cyclin-dependent kinase 5/CDK5 activator 1 (Q00535 whole entry, the tested form may be a part): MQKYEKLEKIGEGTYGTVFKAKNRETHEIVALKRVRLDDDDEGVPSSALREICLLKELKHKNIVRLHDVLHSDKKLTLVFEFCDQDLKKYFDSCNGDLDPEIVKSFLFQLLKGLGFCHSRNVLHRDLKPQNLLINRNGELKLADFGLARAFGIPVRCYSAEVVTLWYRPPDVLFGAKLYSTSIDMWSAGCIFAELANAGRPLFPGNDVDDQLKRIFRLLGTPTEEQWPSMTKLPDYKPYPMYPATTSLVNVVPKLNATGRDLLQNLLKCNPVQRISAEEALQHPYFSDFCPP
Sequence of Cyclin-dependent kinase 5/CDK5 activator 1 (Q15078 whole entry, further chain, the tested form may be a part): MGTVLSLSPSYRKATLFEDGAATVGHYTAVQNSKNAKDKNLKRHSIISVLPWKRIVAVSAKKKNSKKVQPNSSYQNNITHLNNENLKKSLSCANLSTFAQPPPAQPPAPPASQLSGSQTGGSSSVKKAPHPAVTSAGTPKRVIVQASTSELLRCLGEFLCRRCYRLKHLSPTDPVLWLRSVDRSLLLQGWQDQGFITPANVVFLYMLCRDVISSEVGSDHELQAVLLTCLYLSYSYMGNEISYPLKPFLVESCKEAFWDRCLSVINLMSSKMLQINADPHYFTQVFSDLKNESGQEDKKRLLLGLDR

[8] = ZM109 Env clade C HIV-1 fusion inhibitors, dose response, HeLa effector, CEM target cells, luciferase, cherry-pick (AID 652058); assay type: functional, cell-based
Protein Rev = Protein Rev (Human immunodeficiency virus type 1 group M subtype B (isolate HXB2)(HIV-1), UniProt P04618); experiment: inhibitors of Rev binding to RRE RNA, dose response, biochemical, fluorescence polarization, HIV-1 (AID 434976); set-up: species or system Human immunodeficiency virus 1
Sequence of Protein Rev (P04618 whole entry): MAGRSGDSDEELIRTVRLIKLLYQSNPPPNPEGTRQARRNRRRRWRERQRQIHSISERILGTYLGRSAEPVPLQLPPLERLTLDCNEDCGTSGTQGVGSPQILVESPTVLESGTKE

[9] = target: Female germline-specific tumor suppressor gld-1 (Caenorhabditis elegans, UniProt Q17339); experiment: inhibitors of GLD-1 binding to TGE RNA, dose response, biochemical, fluorescence polarization, C. elegans (AID 2802);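 also: fluorescence polarization of labeled TGE RNA bound by purified gld-1 protein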
Sequence of Female germline-specific tumor suppressor gld-1 (Q17339 whole entry): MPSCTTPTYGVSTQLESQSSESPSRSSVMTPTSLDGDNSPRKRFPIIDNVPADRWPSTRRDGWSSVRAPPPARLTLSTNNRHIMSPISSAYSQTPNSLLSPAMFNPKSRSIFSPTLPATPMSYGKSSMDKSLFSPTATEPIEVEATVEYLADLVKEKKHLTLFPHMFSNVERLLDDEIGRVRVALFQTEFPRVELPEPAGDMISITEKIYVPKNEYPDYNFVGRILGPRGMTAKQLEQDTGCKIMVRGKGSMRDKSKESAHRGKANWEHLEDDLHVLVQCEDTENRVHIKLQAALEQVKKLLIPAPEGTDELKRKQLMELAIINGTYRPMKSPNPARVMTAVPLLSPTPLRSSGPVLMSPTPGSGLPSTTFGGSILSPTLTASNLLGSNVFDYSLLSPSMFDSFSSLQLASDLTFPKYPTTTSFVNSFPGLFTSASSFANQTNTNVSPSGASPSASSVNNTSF

X-box-binding protein 1 = X-box-binding protein 1 (Homo sapiens, UniProt P17861); assay type: functional, Cricetulus griseus;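 also: confirmatory dose-response counter-screen serving a CHOP assay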
Sequence of X-box-binding protein 1 (P17861 whole entry): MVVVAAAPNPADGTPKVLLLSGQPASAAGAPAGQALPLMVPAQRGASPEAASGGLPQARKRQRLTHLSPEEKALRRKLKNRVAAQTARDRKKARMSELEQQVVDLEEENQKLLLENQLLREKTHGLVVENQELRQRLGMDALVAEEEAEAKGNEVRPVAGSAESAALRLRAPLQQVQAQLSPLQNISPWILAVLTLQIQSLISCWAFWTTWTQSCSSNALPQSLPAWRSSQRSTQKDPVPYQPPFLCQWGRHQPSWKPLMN

[10] = target: Long-chain-fatty-acid--AMP ligase FadD28 (Mycobacterium tuberculosis, UniProt P9WQ59); experiment: Fluorescence polarization aasay to screen for inhibitors that compete for the binding of FadD28 to a bisubstrate Measured in Biochemical System Using Plate Reader - 2147-01_Inhibitor_Dose_CherryPick_Activity.; assay type: functional, Mycobacterium tuberculosis H37Rv
Sequence of Long-chain-fatty-acid--AMP ligase FadD28 (P9WQ59 whole entry): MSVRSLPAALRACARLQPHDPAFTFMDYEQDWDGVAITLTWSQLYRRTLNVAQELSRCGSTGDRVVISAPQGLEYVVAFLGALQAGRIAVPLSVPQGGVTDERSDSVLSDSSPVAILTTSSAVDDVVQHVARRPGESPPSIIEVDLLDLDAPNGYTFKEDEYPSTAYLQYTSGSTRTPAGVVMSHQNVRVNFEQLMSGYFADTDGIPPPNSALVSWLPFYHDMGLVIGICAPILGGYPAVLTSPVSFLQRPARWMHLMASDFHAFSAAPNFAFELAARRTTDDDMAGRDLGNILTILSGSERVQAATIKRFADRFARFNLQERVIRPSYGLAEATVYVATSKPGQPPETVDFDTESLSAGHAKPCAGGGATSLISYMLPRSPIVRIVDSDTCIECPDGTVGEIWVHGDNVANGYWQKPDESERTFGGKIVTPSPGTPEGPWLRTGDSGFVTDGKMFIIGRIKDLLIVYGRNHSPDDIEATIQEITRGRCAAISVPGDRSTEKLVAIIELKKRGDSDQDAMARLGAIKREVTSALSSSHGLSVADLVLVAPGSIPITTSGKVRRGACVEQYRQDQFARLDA

SUMO-activating enzyme [11] = target: T1, SUMO-activating enzyme (Homo sapiens, UniProt Q9UBT2); experiment: SUMOylation inhibitor hit validation, confirmation, SUMOylation inhibitor project, biochemical, AlphaScreen (AID 2018); assay type: functional
T1 sequence (Q9UBE0 whole entry): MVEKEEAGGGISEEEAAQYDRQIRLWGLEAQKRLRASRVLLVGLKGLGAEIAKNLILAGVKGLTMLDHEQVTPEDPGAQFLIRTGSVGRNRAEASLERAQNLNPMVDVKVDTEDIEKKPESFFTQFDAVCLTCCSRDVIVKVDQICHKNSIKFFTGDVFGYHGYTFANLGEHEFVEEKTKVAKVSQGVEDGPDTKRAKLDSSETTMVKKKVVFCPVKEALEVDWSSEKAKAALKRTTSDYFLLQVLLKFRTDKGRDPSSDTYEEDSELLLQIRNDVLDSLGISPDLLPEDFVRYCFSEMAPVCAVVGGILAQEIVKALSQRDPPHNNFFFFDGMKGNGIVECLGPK
T1 sequence (Q9UBT2 whole entry): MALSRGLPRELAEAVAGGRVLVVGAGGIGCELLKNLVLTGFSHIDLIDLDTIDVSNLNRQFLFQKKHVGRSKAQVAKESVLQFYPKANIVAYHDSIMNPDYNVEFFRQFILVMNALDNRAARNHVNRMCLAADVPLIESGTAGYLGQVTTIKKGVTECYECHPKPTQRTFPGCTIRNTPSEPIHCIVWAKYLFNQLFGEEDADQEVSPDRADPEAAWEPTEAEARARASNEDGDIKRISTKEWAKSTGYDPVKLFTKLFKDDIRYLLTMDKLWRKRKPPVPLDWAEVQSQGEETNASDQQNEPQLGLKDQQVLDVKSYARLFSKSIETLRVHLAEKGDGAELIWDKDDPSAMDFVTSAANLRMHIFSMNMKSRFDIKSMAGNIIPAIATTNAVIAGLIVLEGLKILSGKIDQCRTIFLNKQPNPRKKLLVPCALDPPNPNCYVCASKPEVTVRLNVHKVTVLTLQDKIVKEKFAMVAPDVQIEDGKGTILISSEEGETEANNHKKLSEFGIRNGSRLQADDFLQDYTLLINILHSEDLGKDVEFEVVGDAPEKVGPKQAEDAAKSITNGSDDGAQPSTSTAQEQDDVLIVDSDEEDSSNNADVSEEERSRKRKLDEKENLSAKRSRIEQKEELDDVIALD

[12] = target: Eukaryotic translation initiation factor 4E (Mus musculus, UniProt P63073); experiment: eIF4E–eIF4G protein interaction inhibitors, dose response, biochemical, TR-FRET (AID 855); assay type: functional;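 also: potency for disrupting eIF4E binding to eIF4GI seen as loss of FRET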
Sequence of Eukaryotic translation initiation factor 4E (P63073 whole entry): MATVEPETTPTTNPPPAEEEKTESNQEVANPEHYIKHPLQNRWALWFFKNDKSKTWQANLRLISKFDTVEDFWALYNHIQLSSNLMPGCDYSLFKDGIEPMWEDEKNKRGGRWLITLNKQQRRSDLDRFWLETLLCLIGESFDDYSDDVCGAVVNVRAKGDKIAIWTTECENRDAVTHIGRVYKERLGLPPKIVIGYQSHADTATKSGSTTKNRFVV

SUMO-activating enzyme [13] = target: T1, SUMO-activating enzyme; experiment: inhibitors of in vitro SUMOylation cascade, primary screen, biochemical, HTRF, uHTS (AID 2006); assay type: protein-complex assay

Question: What does the source list for N#Cc1cn(C2OC(CO)C(O)C2O)c2ncnc(N)c12 (stereo unspecified)?
Answer: AC50 [1]: 0.621 µM (active); AC50 [2]: 1.39 µM (active); EC50 [3]: > 91.2 µM (inactive); GI50 (SN12K1): 0.0425 µM (active); AC50 [4]: < 0.26 µM (active); EC50 [5]: > 91.2 µM (inactive); AC50 [6]: < 0.26 µM (active); AC50 [7]: 5.59 µM (active); AC50 [8]: < 0.26 µM (active)

Question: With Nc1c(-c2cccc([N+](=O)[O-])c2)nc2ccccn12 as the compound, how does the IC50 (Protein Rev) read?
Answer: Its IC50 is > 75.5 µM (not active).

Question: And the IC50 [9]?
Answer: The IC50 was 7.64 µM (active).

Question: Which “Absolute IC50 (XBP1)” value (X-box-binding protein 1) does the source give for CC(C)(C)c1ccc(NC(=O)Nc2ccc(F)cc2)cc1 here?
Answer: Its value is 10 µM.

Question: Which AC50 [10] does the source give for Cc1ccc(NC(=O)CN2C(=O)S/C(=C/c3ccc(O)c([N+](=O)[O-])c3)C2=O)cc1C here?
Answer: Its AC50 is 7.6 µM (active).

Question: And the IC50 (SUMO-activating enzyme [11])?
Answer: The IC50 was 5.08 µM (active).

Question: What about the IC50 [12] of the same compound?
Answer: The IC50 was 50 µM (inactive).

Question: And the IC50 (SUMO-activating enzyme [13])?
Answer: Its IC50 is 20.9 µM (active).
